Source: US7371731B2, “Methods for using glucose pentasulfate for treating amyloid associated with type II diabetes” (priority 1998, dated 2008)
Entries after “also recorded” stand apart in the source; their conditions may differ. Read-outs that look alike come from different tables or passages of the source.

Assays:
Aβ (1-40) = target: T1, Aβ (1-40) (Homo sapiens, UniProt P05067); experiment: Thioflavin T fluorometry assay of Aβ (1-40) amyloid fibril formation; format: biochemical; details: for effect on Aβ (1-40) amyloid fibril formation (in words): 1.25 mM compound (1:50 M ratio), 1-week incubation
T1 construct: 25 μM of Aβ (1-40)(Bachem Inc., Torrance, Calif., USA; Lot #WM365); purchased Bachem Inc., Torrance, Calif., USA
T1 sequence (P05067 672-711 limits assumed): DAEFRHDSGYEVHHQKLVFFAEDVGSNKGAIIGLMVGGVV
Text: A previously described method of measuring amyloid fibril formation utilizing Thioflavin T fluorometry (H Naiki et al, Lab. Invest. 65:104-110, 1991; H Levine III, Protein Sci. 2:404-410, 1993; H Levine III, Amyloid: Int. J. Exp. Clin. Invest. 2:1-6, 1995; H Naiki and K. Nakakuki, Lab. Invest. 74:374-383, 1996) was employed initially to identify potential therapeutic compounds capable of inhibiting Aβ amyloid fibril formation. Using this sensitive assay, any decreases or increases in fluorescence were previously shown to correlate with a decrease or increase in the amount of amyloid fibrils (H Naiki et al, Lab. Invest. 65:104-110, 1991; H Levine III, Protein Sci. 2:404-410, 1993; H Levine III, Amyloid: Int. J. Exp. Clin. Invest. 2:1-6, 1995; H Naiki and K. Nakakuki, Lab. Invest. 74:374-383, 1996), allowing one to determine the identification and extent of potential inhibitors and/or enhancers of amyloid fibril formation.
In an initial set of studies, the effects of various compounds on Aβ (1-40) fibrillogenesis was assessed. For these initial studies, 25 μM of Aβ (1-40)(Bachem Inc., Torrance, Calif., USA; Lot #WM365) was incubated in microcentrifuge tubes at 37° C. for 1 week (in triplicate), either alone, or in the presence of 1.25 mM (ie. 1:50 M ratio of Aβ:test compound) of various commercially available compounds (described below) in 150 mM Tris HCl, 10 mM NaCl, pH 7.0 (TBS). The compounds tested included glucose pentasulfate (PTI-48579, potassium salt; molecular weight=771), mannose pentasulfate (PTI-07499, potassium salt; molecular weight=771), methyl alpha-D-glucopyranoside 2,3,4,6-tetrasulfate (PTI-20049, potassium salt; molecular weight=667), methyl alpha-D-mannopyranoside 2,3,4,6-tetrasulfate (PTI-20814, potassium salt; molecular weight=667), sucrose heptasulfate (PTI-70936, potassium salt; molecular weight=1169), sucrose hexasulfate (PTI-70946, potassium salt; molecular weight=1052), and sucrose octasulfate (PTI-70011, potassium salt; molecular weight=1288).
(§1) To assess the effects of each compound on Aβ (1-40) fibril formation, 50 μl aliquots were taken from each tube for analysis at 1 hr, 1 day, 3 days, and 1 week. For each determination described above, following each incubation period, 50 μl of Aβ+/−test compounds were added to 1.2 ml of 100 μM Thioflavin T (Sigma Chemical Co., St. Louis, Mo.) in 50 mM NaPO4 (pH 6.0). […] Fluorescence emission at 482 nm was measured on a Turner instrument-model 450 fluorometer at an excitation wavelength of 450 nm. For each determination, the fluorometer was calibrated by zeroing in the presence of the Thioflavin T reagent alone, and by seting the 50 ng/ml riboflavin (Sigma Chemical Co., St. Louis, Mo.) in the Thioflavin T reagent to 1800 fluorescence units. All fluorescence determinations were based on these references and any fluorescence given off by any of the compounds in the presence of the Thioflavin T reagent was always subtracted from all pertinent readings.
For all fibrillogenesis studies utilizing Thioflavin T fluorometry, comparisons of Aβ in the presence or absence of test compounds were based on paired Student's t tests with data shown as mean+/−standard deviation. Significance was reported at the 95% (p<0.05), 99% (p<0.01) and 99.9% (p<0.001) confidence levels.
In this study, the dose-dependent effects of glucose pentasulfate (PTI-48579) on Aβ (1-40) fibrillogenesis was determined using the Thioflavin T fluorometry assay. 25 μM of Aβ (1-40) (Bachem Inc., Torrance, Calif., USA; Lot #WM365) was incubated in microcentrifuge tubes at 37° C. for 1 week (in triplicate), either alone, or in the presence of 1.25 mM (ie. 1:50 M ratio of Aβ:PTI-48579), 0.41 mM, 0.138 mM and 0.046 mM of glucose pentasulfate in 150 mM Tris HCl, 10 mM NaCl, pH 7.0 (TBS). 50 μl aliquots were taken from each tube for analysis at 1 hr, 1 day, 3 days, and 1 week using Thioflavin T fluorometry as described in section 4.1. […]

[1] = target: T2, human islet amyloid polypeptide (Homo sapiens, UniProt P10997); experiment: Thioflavin T fluorometry assay of islet amyloid polypeptide (amylin) fibrils; format: biochemical; details: 1.25 mM
T2 construct: consists of a 37 amino acid protein known as islet amyloid polypeptide or amylin; purchased Bachem Inc, Torrance, Calif., USA
T2 sequence (P10997 34-70 limits assumed): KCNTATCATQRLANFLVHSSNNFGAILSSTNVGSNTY
Experimental: as §1
For this study, the method of Thioflavin T fluorometry as described above was used. Briefly, 25 μM of human islet amyloid polypeptide (Bachem Inc, Torrance, Calif., USA, Lot # WL934) was incubated in microcentrifuge tubes at 37° C. for 1 week (in triplicate), either alone, or in the presence of 1.25 mM glucose pentasulfate (PTI-48579; molecular weight=771) or mannose pentasulfate (PTI-07499; molecular weight=771). To assess the effects of glucose pentasulfate and mannose pentasulfate on islet amyloid polypeptide fibrillogenesis, 50 μl aliquots were taken from each tube for analysis at 1 hr, 1 day, 2 days, 3 days, 4 days and 1 week. For each determination described above, following each incubation period, 50 μl aliquots of islet amyloid polypeptide+/−glucose pentasulfate or mannose pentasulfate were added to 1.2 ml of 100 μM Thioflavin T (Sigma Chemical Co., St. Louis, Mo.) in 50 mM NaPO4 (pH 6.0) for fluorometry readings as described in section 4.1.

Aβ-heparin binding = target: T3, Aβ-heparin binding (Homo sapiens, UniProt P05067); experiment: Solid phase binding immunoassay, binding of Aβ to substrate bound heparin; details: 5 μM Aβ 1-40
T3 construct: 25 μM of Aβ (1-40)(Bachem Inc., Torrance, Calif., USA; Lot #WM365); purchased Bachem Inc., Torrance, Calif., USA
T3 sequence (P05067 672-711 limits assumed): as the sequence (P05067 672-711 limits assumed) above
Experimental: (§2) 12 μg of heparin (molecular weight=5,000; obtained from the Sigma Chemical Company, St. Louis, Mo., USA) or heparan sulfate (molecular weight=˜70,000; obtained from Seikagaku America, Rockville, Md.) in 80 μl of Tris-buffered saline containing 100 mM Tris-HCl, 50 mM NaCl, 3 mM NaN3, pH 9.0 (TBS) was allowed to bind overnight at 4° C. to microtiter wells (Nunc plates, Maxisorb). The next day all of the microtiter wells were blocked for 2 hours by incubating with 300 μl of TBS with 0.05% Tween-20 (TTBS) plus 1% bovine serum albumin (BSA) (obtained from the Sigma Chemical Company, St. Louis, Mo., USA). Then, 100 μl of 5 μM Aβ 1-40 (Bachem Inc., Torrance, Calif., USA; Lot #WM365) in TTBS containing 0.05% albumin in the presence or absence of glucose pentasulfate at concentrations of 2.5 mM, 0.83 mM, 0.28 mM and 0.093 mM were placed in wells (in triplicate) containing substrate bound perlecan or blank, and allowed to bind overnight at 4° C. The next day, the wells were rinsed once with TTBS, and then probed for 45 minutes with 100 μl of anti-6E10 (Senetek, Maryland Heights, Mo.)(which recognizes Aβ 1-17) diluted 1:1000 with TTBS. This was followed by rinsing once with TTBS and probed for 45 minutes with biotinylated goat-anti mouse (diluted 1:1000) containing streptavidin-peroxidase or anti-biotin-peroxidase (1:500 dilution of a 2 μg/ml solution) (Sigma Chemical Co., St. Louis, Mo.) in TTBS containing 0.1% BSA. The wells were then rinsed 3 times with TTBS and 100 μl of a substrate solution (OPD-Sigma Fast from Sigma Chemical Co., St. Louis, Mo.) was added to each well and allowed to develop for 5 minutes or until a significant color change was observed. The reaction was stopped with 50 μl of 4N H2SO4 and read on a Model 450 microplate reader (Biorad, Hercules, Calif., USA) at 490 nm.

[2] = target: T4, pre-formed Aβ (1-40) amyloid fibrils (Homo sapiens, UniProt P05067); experiment: Thioflavin T fluorometry assay of dissolution of pre-formed Aβ (1-40) amyloid fibrils; format: biochemical; details: 25 μM fibrillized Aβ, 4 day incubation
T4 construct: 25 μM of Aβ (1-40)(Bachem Inc., Torrance, Calif., USA; Lot #WM365); purchased Bachem Inc., Torrance, Calif., USA
T4 sequence (P05067 672-711 limits assumed): as the sequence (P05067 672-711 limits assumed) above
Experimental: as §1
For this study, 1 mg of Aβ (1-40) (Bachem Inc., Torrance, Calif., USA; Lot #WM365) was dissolved in 1.0 ml of double distilled water (1 mg/ml solution) and then incubated at 37° C. for 1 week. 25 μM of fibrillized Aβ was then incubated at 37° C. in the presence or absence of glucose pentasulfate at concentrations of 1.25 mM, 0.63 mM, 0.31 mM and 0.16 mM containing 150 mM Tris HCl, 10 mM NaCl, pH 7.0. Following a 4 day incubation, 50 μl aliquots were added to 1.2 ml of 100 μM Thioflavin T (Sigma Chemical Co., St. Louis, Mo.) in 50 mM NaPO4 (pH 6.0) for fluorometry readings as described in section 4.1.

[3] = target: T5, Aβ-heparan sulfate binding (Homo sapiens, UniProt P05067); experiment: Solid phase binding immunoassay, Aβ-heparan sulfate binding; details: 2.5 to 0.093 mM; data not shown
T5 construct: 25 μM of Aβ (1-40)(Bachem Inc., Torrance, Calif., USA; Lot #WM365); purchased Bachem Inc., Torrance, Calif., USA
T5 sequence (P05067 672-711 limits assumed): as the sequence (P05067 672-711 limits assumed) above
Experimental: as §2, with “This was followed by rinsing once with TTBS and probed for 45 minutes with biotinylated goat-anti mouse (diluted 1:1000) containing streptavidin-peroxidase or anti-biotin-peroxidase (1:500 dilution of a 2 μg/ml solution) (Sigma Chemical Co., St. Louis, Mo.) in TTBS containing 0.1% BSA. The wells were then rinsed 3 times with TTBS and 100 μl of a substrate solution (OPD-Sigma Fast from Sigma Chemical Co., St. Louis, Mo.) was added to each well and allowed to develop for 5 minutes or until a significant color change was observed.” left out

## sucrose heptasulfate [reference compound]
Aβ (1-40); Example 1, 25 μM Aβ (1-40)
  effect on Aβ (1-40) amyloid fibril formation (in words): ineffective inhibitors

## CO[C@H]1O[C@H](COS(=O)(=O)O)[C@@H](OS(=O)(=O)O)[C@H](OS(=O)(=O)O)[C@H]1OS(=O)(=O)O [methyl alpha-D-glucopyranoside 2,3,4,6-tetrasulfate, reference compound]
Aβ (1-40); Example 1, 25 μM Aβ (1-40)
  effect on Aβ (1-40) amyloid fibril formation (in words): ineffective inhibitors

## CO[C@H]1O[C@H](COS(=O)(=O)O)[C@@H](OS(=O)(=O)O)[C@H](OS(=O)(=O)O)[C@@H]1OS(=O)(=O)O [methyl alpha-D-mannopyranoside 2,3,4,6-tetrasulfate, reference compound]
Aβ (1-40); Example 1, 25 μM Aβ (1-40)
  effect on Aβ (1-40) amyloid fibril formation (in words): ineffective inhibitors

## O=C[C@@H](OS(=O)(=O)O)[C@@H](OS(=O)(=O)O)[C@H](OS(=O)(=O)O)[C@@H](COS(=O)(=O)O)OS(=O)(=O)O [mannose pentasulfate, reference compound]
Aβ (1-40); Example 1, 25 μM Aβ (1-40)
  effect on Aβ (1-40) amyloid fibril formation (in words): ineffective inhibitors; also recorded: did not inhibit
[1]; all time points (1 hr to 1 week)
  effect on islet amyloid polypeptide fibrillogenesis (in words): significant increase

## sucrose hexasulfate [reference compound]
Aβ (1-40); Example 1, 25 μM Aβ (1-40)
  effect on Aβ (1-40) amyloid fibril formation (in words): ineffective inhibitors

## O=C[C@H](OS(=O)(=O)O)[C@@H](OS(=O)(=O)O)[C@H](OS(=O)(=O)O)[C@@H](COS(=O)(=O)O)OS(=O)(=O)O [PTI-48579, glucose pentasulfate]
Aβ (1-40); Example 1, 25 μM Aβ (1-40)
  effect on Aβ (1-40) amyloid fibril formation (in words): inhibited
Aβ (1-40); Example 1, 25 μM Aβ (1-40), 1.25 mM compound, 37° C., 1 week, read-out: inhibition of Aβ (1-40) amyloid fibril formation
  inhibition at 1250 µM: 80%
Aβ (1-40); Example 1, 1.25 mM compound, 3 days
  inhibition of Aβ amyloid fibril formation (in words): Significant inhibition
Aβ (1-40); Example 2, 0.046 mM, 3 days
  inhibition of Aβ fibril formation (in words): did not significantly inhibit
Aβ (1-40); Example 2, 0.138 mM, 3 days
  inhibition of Aβ fibril formation (in words): did not significantly inhibit
Aβ (1-40); Example 2, 0.41 mM, 1 week, read-out: inhibition of Aβ (1-40) fibrillogenesis
  inhibition at 410 µM: 47%
Aβ (1-40); Example 2, 0.41 mM, 3 days
  inhibition of Aβ fibril formation (in words): did not significantly inhibit
Aβ (1-40); Example 2, 1.25 mM, 1 week, read-out: inhibition of Aβ (1-40) fibrillogenesis
  inhibition at 1250 µM: 72%
Aβ (1-40); Example 2, 1.25 mM, 3 days, read-out: inhibition of Aβ fibril formation
  inhibition at 1250 µM: 39%
[1]; 25 μM islet amyloid polypeptide, 1 week
  dissolution of pre-formed amylin fibrils: 57%
[1]; 1 hour, 1 day and 2 days
  effect on islet amyloid polypeptide fibrillogenesis at earlier time points (in words): initial increase
Aβ-heparin binding; 0.093 mM
  inhibition at 93 µM: 45%
Aβ-heparin binding; 0.28 mM
  inhibition at 280 µM: 74%
Aβ-heparin binding; 0.83 mM
  inhibition at 830 µM: 92%
Aβ-heparin binding; 2.5 mM
  inhibition at 2500 µM: 78%
[2]; 0.16 mM
  dissolution of pre-formed Aβ amyloid fibrils: 23%
[2]; 0.31 mM
  dissolution of pre-formed Aβ amyloid fibrils: 31%
[2]; 0.63 mM
  dissolution of pre-formed Aβ amyloid fibrils: 47%
[2]; 1.25 mM
  dissolution of pre-formed Aβ amyloid fibrils: 60%
[3]
  inhibition of Aβ-heparan sulfate binding (in words): significant dose-dependent inhibition

## O=S(=O)(O)OC[C@H]1O[C@@](COS(=O)(=O)O)(O[C@H]2O[C@H](COS(=O)(=O)O)[C@@H](OS(=O)(=O)O)[C@H](OS(=O)(=O)O)[C@H]2OS(=O)(=O)O)[C@@H](OS(=O)(=O)O)[C@@H]1OS(=O)(=O)O [sucrose octasulfate, reference compound]
Aβ (1-40); Example 1, 25 μM Aβ (1-40)
  effect on Aβ (1-40) amyloid fibril formation (in words): ineffective inhibitors
